Laboratory results as given in US20250049036A1 (priority 2021, published 2025).

Experiments:
Venturia Inequalis = experiment: Venturia inequalis (VENTIN) spore growth inhibition in liquid medium, 96-well microtiter plate, OD 600; type: cell-based; conditions: spore suspension in PDB liquid medium, 18° C., 15-18 days, OD at 600, read-out: control compared to the untreated check
Method: Potato dextrose (PDB) liquid medium containing a VENTIN (10^5 spores/ml) spore suspension was prepared. For the inhibition assay, each test compound was solved in dimethyl sulfoxide. 100 μl of the test compound in media-solution was added to a 96-well microtiter plate, consequently, the same volume (100 μl) of spore suspension was added to the well making the final test concentrations and the treated plate was incubated at 18° C. for 15-18 days. The growth inhibition was evaluated by measuring the OD at 600. Percent inhibition was calculated with the below formula: […]

Phakopsora pachyrhizi = Phakopsora pachyrhizi test on soybean, preventive, greenhouse; type: in vivo; conditions: preventive spray on soybean, inoculated one day after treatment, read-out: control (efficacy, disease severity) compared to the untreated check
Procedure, shortened: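 Greenhouse-grown young soybean plants were sprayed with compound (2% DMSO/acetone, emulsifier in water) at the stated rate. One day later they were inoculated with 2×10^5 P. pachyrhizi inoculum and held at 22-24 °C, 80-90% relative humidity for disease development.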

Phytophthora infestans [1] = experiment: whole plant or invertebrate; type: in vivo, Phytophthora infestans on tomato; conditions: in Solanum lycopersicum, read-out: control (efficacy, disease severity) compared to the untreated check
Botrytis cinerea [2] = experiment: Botrytis cinerea (gray mold) mycelial radial growth on potato dextrose agar; type: cell-based; conditions: 168 h, 22° C., seven days, read-out: control compared to the untreated check
Method: The compounds were dissolved in 0.3% dimethyl sulfoxide and then added to potato dextrose agar medium just prior to dispensing it into petri dishes. 5 mL medium, with the compound in the desired concentration, was dispensed into 60 mm sterile petri-plates. After solidification, each plate was seeded with a 5 mm size mycelial disc taken from the periphery of an actively growing virulent culture plate. The plates were incubated in growth chambers at 22° C. temperature and 90% relative humidity for seven days and the radial growth was measured and compared to the one of the untreated control.

Pyricularia oryzae = experiment: microbe, parasite or virus in culture; type: cell-based; conditions: 168 h, read-out: control compared to the untreated check
Parastagonospora nodorum = Parastagonospora nodorum (PARANO) spore growth inhibition in liquid medium, 96-well microtiter plate, OD 600; type: cell-based; conditions: spore suspension in PDB liquid medium, 18° C., 5-6 days, OD at 600, read-out: control compared to the untreated check
Procedure, shortened: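 Read-out is percent growth inhibition from OD at 600 after 5-6 days at 18° C. Compounds, dissolved in DMSO, were diluted in potato dextrose broth and combined in equal volume with a 10^5 spores/ml suspension of PARANO.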

Phytophthora infestans [3] = experiment: microbe, parasite or virus in culture; type: cell-based; conditions: 168 h, read-out: control compared to the untreated check
Colletotrichum capsici = Colletotrichum capsici (anthracnose) mycelial radial growth on potato dextrose agar; type: cell-based; conditions: Colletotrichum truncatum, 168 h, 25° C., seven days, read-out: control compared to the untreated check
Procedure, shortened: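 Compounds in 0.3% DMSO were mixed into potato dextrose agar, and each plate was seeded with a 5 mm mycelial disc from an actively growing culture. Plates were incubated at 25° C and 60% relative humidity for seven days. Radial growth was compared with untreated control.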

Botrytis cinerea [4] = experiment: Botrytis cinerea liq. (BOTRCI) spore growth inhibition in liquid medium, 96-well microtiter plate, OD 405 nm; type: cell-based; conditions: spore suspension in YBA liquid medium, 22° C., 5-6 days, OD at 405 nm, read-out: control compared to the untreated check
Method: Yeast bacterial peptone and sodium acetate (YBA) liquid medium containing a BOTRCI (10^4 spores/ml) spore suspension was prepared. For the inhibition assay, each test compound was solved in dimethyl sulfoxide. 100 μl of the test compound in media-solution was added to a 96-well microtiter plate, consequently, the same volume (100 μl) of spore suspension was added to the well making the final test concentrations and the plate was incubated at 22° C. for 5-6 days. The growth inhibition was evaluated by measuring the OD at 405 nm. Percent inhibition was calculated with the below formula:
Where T=treatment, C=control, and B=blank

Botrytis cinerea [5] = experiment: Botrytis cinerea test on tomato, preventive, greenhouse; type: in vivo; conditions: preventive spray on bean/chili plants (heading: tomato), inoculated one day after treatment, read-out: control (efficacy, disease severity) compared to the untreated check

COc1ccccc1CC(C)(C)NC(=O)c1cnc2c(ccn2C)c1 [Compound 49, N-(1-(2-methoxyphenyl)-2-methylpropan-2-yl)-1-methyl-1H-pyrrolo[2,3-b]pyridine-5-carboxamide]
≥ 70%: inhibition of growth at 300 ppm (Venturia Inequalis) | pest or weed control at 500 ppm (Phakopsora pachyrhizi)

Cc1nc2c(ccn2C)cc1C(=O)NC(C)(C)C(C)c1ccccc1Cl (stereo not drawn) [Compound 40, N-(3-(2-chlorophenyl)-2-methylbutan-2-yl)-1,6-dimethyl-1H-pyrrolo[2,3-b]pyridine-5-carboxamide]
≥ 70%: pest or weed control at 500 ppm (Phytophthora infestans [1]) | pest or weed control at 500 ppm (Phakopsora pachyrhizi) | inhibition of growth at 300 ppm (Botrytis cinerea [2]) | inhibition of growth at 300 ppm (Pyricularia oryzae) | inhibition of growth at 300 ppm (Parastagonospora nodorum)

CC(c1ccccc1Cl)C(C)(C)NC(=O)c1cnc2c(c1)c(F)cn2C (stereo not drawn) [Compound 71, N-(3-(2-chlorophenyl)-2-methylbutan-2-yl)-3-fluoro-1-methyl-1H-pyrrolo[2,3-b]pyridine-5-carboxamide]
≥ 70%: pest or weed control at 500 ppm (Phytophthora infestans [1]) | pest or weed control at 500 ppm (Phakopsora pachyrhizi) | inhibition of growth at 300 ppm (Pyricularia oryzae)

Cn1ccc2cc(C(=O)NC(C)(C)Cc3cccc(Br)c3)cnc21 [Compound 48, N-(1-(3-bromophenyl)-2-methylpropan-2-yl)-1-methyl-1H-pyrrolo[2,3-b]pyridine-5-carboxamide]
≥ 70%: pest or weed control at 500 ppm (Phytophthora infestans [1]) | pest or weed control at 500 ppm (Phakopsora pachyrhizi) | inhibition of growth at 300 ppm (Pyricularia oryzae) | inhibition of growth at 300 ppm (Parastagonospora nodorum)

CC(C)CC(C)(Cc1ccccc1)NC(=O)c1cnc2c(c1)c(Cl)cn2C (stereo not drawn) [Compound 52, 3-chloro-N-(2,4-dimethyl-1-phenylpentan-2-yl)-1-methyl-1H-pyrrolo[2,3-b]pyridine-5-carboxamide]
≥ 70%: inhibition of growth at 300 ppm (Venturia Inequalis) | pest or weed control at 500 ppm (Phytophthora infestans [1]) | pest or weed control at 500 ppm (Phakopsora pachyrhizi)

Cn1cc(F)c2cc(C(=O)NC(C)(C)Cc3ccccc3F)cnc21 [Compound 68, 3-fluoro-N-(1-(2-fluorophenyl)-2-methylpropan-2-yl)-1-methyl-1H-pyrrolo[2,3-b]pyridine-5-carboxamide]
≥ 70%: inhibition of growth at 300 ppm (Venturia Inequalis) | pest or weed control at 500 ppm (Phytophthora infestans [1]) | pest or weed control at 500 ppm (Phakopsora pachyrhizi)

CC(C)(COC(=O)c1cccc(F)c1)NC(=O)c1cnc2[nH]ccc2c1 [Compound 146, 2-methyl-2-(1H-pyrrolo[2,3-b]pyridine-5-carboxamido)propyl 3-fluorobenzoate]
≥ 70%: inhibition of growth at 300 ppm (Venturia Inequalis) | pest or weed control at 500 ppm (Phakopsora pachyrhizi) | inhibition of growth at 300 ppm (Phytophthora infestans [3])

Cn1ccc2cc(C(=O)NC3(Cc4ccccc4)CC3)cnc21 [Compound 39, N-(1-benzylcyclopropyl)-1-methyl-1H-pyrrolo[2,3-b]pyridine-5-carboxamide]
≥ 70%: inhibition of growth at 300 ppm (Venturia Inequalis) | pest or weed control at 500 ppm (Phytophthora infestans [1]) | pest or weed control at 500 ppm (Phakopsora pachyrhizi) | inhibition of growth at 300 ppm (Phytophthora infestans [3]) | inhibition of growth at 300 ppm (Colletotrichum capsici) | inhibition of growth at 300 ppm (Pyricularia oryzae)

Cn1cc(F)c2cc(C(=O)NC(C)(C)Cc3ccc(Cl)c(F)c3)cnc21 [Compound 69, N-(1-(4-chloro-3-fluorophenyl)-2-methylpropan-2-yl)-3-fluoro-1-methyl-1H-pyrrolo[2,3-b]pyridine-5-carboxamide]
≥ 70%: inhibition of growth at 300 ppm (Venturia Inequalis) | pest or weed control at 500 ppm (Phytophthora infestans [1]) | inhibition of growth at 300 ppm (Pyricularia oryzae)

Cn1ccc2cc(C(=O)NC(C)(C)Cc3ccc(Cl)c(F)c3)cnc21 [Compound 42, N-(1-(4-chloro-3-fluorophenyl)-2-methylpropan-2-yl)-1-methyl-1H-pyrrolo[2,3-b]pyridine-5-carboxamide]
≥ 70%: pest or weed control at 500 ppm (Phytophthora infestans [1]) | pest or weed control at 500 ppm (Phakopsora pachyrhizi) | inhibition of growth at 300 ppm (Pyricularia oryzae) | inhibition of growth at 300 ppm (Parastagonospora nodorum)

CC(CCc1ccccc1)NC(=O)c1cnc2c(ccn2C)c1 (stereo not drawn) [Compound 75, 1-methyl-N-(4-phenylbutan-2-yl)-1H-pyrrolo[2,3-b]pyridine-5-carboxamide]
≥ 70%: inhibition of growth at 300 ppm (Venturia Inequalis) | pest or weed control at 500 ppm (Phytophthora infestans [1]) | pest or weed control at 500 ppm (Phakopsora pachyrhizi) | inhibition of growth at 300 ppm (Botrytis cinerea [4]) | pest or weed control at 500 ppm (Botrytis cinerea [5]) | inhibition of growth at 300 ppm (Colletotrichum capsici) | inhibition of growth at 300 ppm (Botrytis cinerea [2]) | inhibition of growth at 300 ppm (Parastagonospora nodorum)

Cc1nc2c(ccn2C)cc1C(=O)NC(C)(C)Cc1ccccc1F [Compound 38, N-(1-(2-fluorophenyl)-2-methylpropan-2-yl)-1,6-dimethyl-1H-pyrrolo[2,3-b]pyridine-5-carboxamide]
≥ 70%: pest or weed control at 500 ppm (Phytophthora infestans [1]) | pest or weed control at 500 ppm (Phakopsora pachyrhizi) | pest or weed control at 500 ppm (Botrytis cinerea [5]) | inhibition of growth at 300 ppm (Pyricularia oryzae)

Cn1ccc2cc(C(=O)NC(C)(C)COC(=O)c3ccccc3C(F)(F)F)cnc21 [Compound 167, 2-methyl-2-(1-methyl-1H-pyrrolo[2,3-b]pyridine-5-carboxamido)propyl 2-(trifluoromethyl)benzoate]
≥ 70%: inhibition of growth at 300 ppm (Venturia Inequalis)

Cn1ccc2cc(C(=O)NCC3(c4ccccc4)CC3)cnc21 [Compound 79, 1-methyl-N-((1-phenylcyclopropyl)methyl)-1H-pyrrolo [2,3-b]pyridine-5-carboxamide]
≥ 70%: inhibition of growth at 300 ppm (Venturia Inequalis) | pest or weed control at 500 ppm (Phytophthora infestans [1]) | inhibition of growth at 300 ppm (Phytophthora infestans [3]) | inhibition of growth at 300 ppm (Pyricularia oryzae) | inhibition of growth at 300 ppm (Parastagonospora nodorum)

CC(C)(COC(=O)c1cccc(F)c1)NC(=O)c1cnc2c(c1)CCC2 [Compound 145, 2-(6,7-dihydro-5H-cyclopenta[b]pyridine-3-carboxamido)-2-methylpropyl 3-fluorobenzoate]
≥ 70%: pest or weed control at 500 ppm (Phytophthora infestans [1])

CC(C)(Cc1ccc(F)cc1)NC(=O)c1cnc2[nH]ccc2c1 [Compound 41, N-(1-(4-fluorophenyl)-2-methylpropan-2-yl)-1H-pyrrolo[2,3-b] pyridine-5-carboxamide]
≥ 70%: inhibition of growth at 300 ppm (Venturia Inequalis) | pest or weed control at 500 ppm (Phytophthora infestans [1]) | pest or weed control at 500 ppm (Phakopsora pachyrhizi) | inhibition of growth at 300 ppm (Phytophthora infestans [3]) | pest or weed control at 500 ppm (Botrytis cinerea [5])

CC(C)(COC(=O)c1ccccc1C(F)(F)F)NC(=O)c1cnc2ccsc2c1 [Compound 161, 2-methyl-2-(thieno[3,2-b]pyridine-6-carboxamido)propyl 2-(trifluoromethyl)benzoate]
≥ 70%: inhibition of growth at 300 ppm (Venturia Inequalis) | inhibition of growth at 300 ppm (Pyricularia oryzae)

Cn1cc(Cl)c2cc(C(=O)NC(C)(C)Cc3ccccc3)cnc21 [Compound 53, 3-chloro-1-methyl-N-(2-methyl-1-phenylpropan-2-yl)-1H-pyrrolo[2,3-b] pyridine-5-carboxamide]
≥ 70%: inhibition of growth at 300 ppm (Venturia Inequalis) | pest or weed control at 500 ppm (Phytophthora infestans [1]) | pest or weed control at 500 ppm (Phakopsora pachyrhizi) | inhibition of growth at 300 ppm (Pyricularia oryzae)

C=C(C)CC(C)(COc1ccccc1F)NC(=O)c1cnc2c(c1)CCC2 (stereo not drawn) [Compound 160, N-(1-(2-fluorophenoxy)-2,4-dimethylpent-4-en-2-yl)-6,7-dihydro-5H-cyclopenta[b]pyridine-3-carboxamide]
≥ 70%: inhibition of growth at 300 ppm (Venturia Inequalis) | inhibition of growth at 300 ppm (Colletotrichum capsici) | inhibition of growth at 300 ppm (Botrytis cinerea [2]) | inhibition of growth at 300 ppm (Parastagonospora nodorum)

Cn1cc(Cl)c2cc(C(=O)NC(C)(C)Cc3ccccc3Cl)cnc21 [Compound 83, 3-chloro-N-(1-(2-chlorophenyl)-2-methylpropan-2-yl)-1-methyl-1H-pyrrolo[2,3-b]pyridine-5-carboxamide]
≥ 70%: inhibition of growth at 300 ppm (Venturia Inequalis) | pest or weed control at 500 ppm (Phytophthora infestans [1]) | pest or weed control at 500 ppm (Phakopsora pachyrhizi) | pest or weed control at 500 ppm (Botrytis cinerea [5]) | inhibition of growth at 300 ppm (Pyricularia oryzae)
